Assay [1] relates to STAT5 phosphorylation by GMCSF in TF-1 cells. The experiment in a line: JAK cellular assay: STAT5 phosphorylation by GMCSF in TF-1 cells (HTRF). The class given is cell-based. The following applies: Homo sapiens; TF-1 cells, GMCSF 5 ng/ml, pSTAT5 HTRF; read-out: Cell Based Assay (μM) TF-1/GMCSF/pSTAT5. On the procedure: TF-1 cells were starved overnight in OptiMEM medium with 0.5% charcoal stripped fetal bovine serum, 0.1 mM nonessential amino acids (NEAA), 1 mM sodium pyruvate and without phenol red in CO2 incubator maintained at 37° c. Next day, cells were resuspended in RPMI without phenol red and dispensed into a 96 well plate at a final cell density of 1,20,000 cells per well. Compounds were diluted in DMSO and added to cells and incubated for 30 minutes in CO2 incubator maintained at 37° c. Final DMSO concentration in cell based assay was 0.2%. Human recombinant cytokines, IL-6 (30 ng/ml) and GMCSF (5 ng/ml) were added to the plate containing cells along with compound and incubated for 20 minutes with gentle tapping at every 5 minutes once. Compound mediated effects on STAT3 and STAT5 phosphorylation was measured in the lysates prepared by using CISBIO pSTAT3 and pSTAT5 detection kits by HTRF method. Background signal obtained from cells which were not activated with cytokines, was subtracted from vehicle controls and compound treated wells.
On the technique in general: TR-FRET usually uses a lanthanide donor and a delayed reading to cut background.

A further assay concerns the target T1, Recombinant JAK2 (Homo sapiens, UniProt O60674).
T1 construct: purchased Carna Biosciences
The experiment in a line: JAK biochemical assay (LANCE Ultra TR-FRET), JAK2. The following applies: recombinant JAK2, TR-FRET; read-out: Biochemical Assay (μM) JAK2. The gist of the method:
(§1)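 Kinase reactions ran in buffer of 50 mM HEPES pH 7.5 with 1 mM EGTA, 10 mM MgCl2, 2 mM DTT and 0.01% Tween-20, using recombinant enzyme. Phosphorylated ULight substrate was detected by TR-FRET, and compound effect expressed as % inhibition against vehicle.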

In another assay the target is T2, Recombinant JAK1 (Homo sapiens, UniProt P23458).
T2 construct: purchased Carna Biosciences
T2 sequence (P23458 whole entry): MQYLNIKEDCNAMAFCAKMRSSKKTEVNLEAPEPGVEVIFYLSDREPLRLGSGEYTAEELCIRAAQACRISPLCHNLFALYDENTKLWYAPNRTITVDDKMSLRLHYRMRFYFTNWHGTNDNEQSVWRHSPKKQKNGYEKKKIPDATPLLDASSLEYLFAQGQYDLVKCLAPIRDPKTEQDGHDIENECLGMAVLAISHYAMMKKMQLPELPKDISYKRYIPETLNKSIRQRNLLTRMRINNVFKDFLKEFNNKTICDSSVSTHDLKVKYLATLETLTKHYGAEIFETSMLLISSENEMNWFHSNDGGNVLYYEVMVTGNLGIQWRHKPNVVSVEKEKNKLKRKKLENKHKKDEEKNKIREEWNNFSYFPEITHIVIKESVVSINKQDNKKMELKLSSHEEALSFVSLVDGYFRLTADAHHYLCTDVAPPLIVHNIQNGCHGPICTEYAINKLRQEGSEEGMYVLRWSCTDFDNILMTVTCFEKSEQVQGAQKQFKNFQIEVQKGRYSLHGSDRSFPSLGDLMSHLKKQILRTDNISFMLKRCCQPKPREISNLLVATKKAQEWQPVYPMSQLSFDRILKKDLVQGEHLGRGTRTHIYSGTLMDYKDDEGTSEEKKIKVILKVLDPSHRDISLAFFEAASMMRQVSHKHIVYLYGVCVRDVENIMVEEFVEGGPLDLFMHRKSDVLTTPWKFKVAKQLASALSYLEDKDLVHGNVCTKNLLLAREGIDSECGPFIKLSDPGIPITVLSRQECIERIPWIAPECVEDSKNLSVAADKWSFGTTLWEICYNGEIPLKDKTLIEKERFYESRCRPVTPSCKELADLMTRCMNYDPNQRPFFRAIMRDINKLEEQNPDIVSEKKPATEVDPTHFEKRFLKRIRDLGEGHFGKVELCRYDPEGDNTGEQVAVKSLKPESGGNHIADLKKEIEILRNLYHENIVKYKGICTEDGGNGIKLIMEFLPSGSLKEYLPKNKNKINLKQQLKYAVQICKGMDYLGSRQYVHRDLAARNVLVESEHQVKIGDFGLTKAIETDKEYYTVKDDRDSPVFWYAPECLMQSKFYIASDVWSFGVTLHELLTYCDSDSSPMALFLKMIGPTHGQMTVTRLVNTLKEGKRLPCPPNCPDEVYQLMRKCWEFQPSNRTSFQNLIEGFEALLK
The experiment in a line: JAK biochemical assay (LANCE Ultra TR-FRET), JAK1. To be noted: recombinant JAK1, TR-FRET; read-out: Biochemical Assay (μM) JAK1. The gist of the method:
as §1

Assay [2] relates to STAT3 phosphorylation by IL-6 in TF-1 cells. The experiment in a line: JAK cellular assay: STAT3 phosphorylation by IL-6 in TF-1 cells (HTRF). In kind it is cell-based. To be noted: Homo sapiens, TF-1, TF-1 cells, IL-6 30 ng/ml, pSTAT3 HTRF; read-out: Cell Based Assay (μM) TF-1/IL-6/pSTAT3. The gist of the method:
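TF-1 cells starved overnight in low-serum OptiMEM, then 120,000/well in RPMI, preincubated with compound 30 min at 37 °C (0.2% DMSO final). Stimulation 20 min with IL-6 30 ng/ml (pSTAT3) or GMCSF 5 ng/ml (pSTAT5); lysate phospho-STAT by HTRF, unstimulated background subtracted.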

Another assay addresses T3, Recombinant JAK3 (Homo sapiens, UniProt P52333).
T3 construct: purchased Carna Biosciences
T3 sequence (P52333 1-1124): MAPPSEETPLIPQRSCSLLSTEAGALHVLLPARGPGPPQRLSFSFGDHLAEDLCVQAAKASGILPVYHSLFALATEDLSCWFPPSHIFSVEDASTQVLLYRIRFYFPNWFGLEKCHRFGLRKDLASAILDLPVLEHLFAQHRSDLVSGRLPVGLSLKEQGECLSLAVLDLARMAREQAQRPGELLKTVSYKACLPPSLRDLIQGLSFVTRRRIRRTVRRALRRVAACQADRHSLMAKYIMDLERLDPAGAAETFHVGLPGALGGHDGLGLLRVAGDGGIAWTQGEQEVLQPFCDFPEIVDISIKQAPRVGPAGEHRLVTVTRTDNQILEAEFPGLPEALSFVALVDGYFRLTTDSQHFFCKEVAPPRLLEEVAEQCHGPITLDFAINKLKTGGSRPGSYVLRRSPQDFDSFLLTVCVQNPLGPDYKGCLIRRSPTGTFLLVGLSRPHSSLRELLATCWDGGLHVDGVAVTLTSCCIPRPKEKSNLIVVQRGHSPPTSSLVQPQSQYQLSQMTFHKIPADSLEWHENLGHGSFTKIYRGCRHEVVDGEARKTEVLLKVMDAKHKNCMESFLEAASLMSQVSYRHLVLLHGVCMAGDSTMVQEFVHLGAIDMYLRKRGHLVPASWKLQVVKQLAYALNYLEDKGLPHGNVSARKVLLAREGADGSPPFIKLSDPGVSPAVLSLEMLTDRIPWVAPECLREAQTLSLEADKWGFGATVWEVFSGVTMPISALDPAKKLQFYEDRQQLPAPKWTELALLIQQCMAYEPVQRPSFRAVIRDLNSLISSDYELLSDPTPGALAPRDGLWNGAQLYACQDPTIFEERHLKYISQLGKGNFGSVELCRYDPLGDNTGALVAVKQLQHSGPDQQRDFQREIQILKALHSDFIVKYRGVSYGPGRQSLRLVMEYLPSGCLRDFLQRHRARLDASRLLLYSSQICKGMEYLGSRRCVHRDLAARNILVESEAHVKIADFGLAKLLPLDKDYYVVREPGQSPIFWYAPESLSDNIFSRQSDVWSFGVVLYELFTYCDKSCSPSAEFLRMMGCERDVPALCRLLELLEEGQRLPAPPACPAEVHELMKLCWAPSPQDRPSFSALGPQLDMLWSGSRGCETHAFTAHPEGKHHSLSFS
The experiment in a line: JAK biochemical assay (LANCE Ultra TR-FRET), JAK3. The following applies: recombinant JAK3, TR-FRET; read-out: Biochemical Assay (μM) JAK3. The gist of the method:
as §1

Another assay concerns the target T4, Recombinant TYK2 (Homo sapiens, UniProt P29597).
T4 construct: purchased Carna Biosciences
The experiment in a line: JAK biochemical assay (LANCE Ultra TR-FRET), TYK2. The following applies: recombinant TYK2, TR-FRET; read-out: Biochemical Assay (μM) TYK2. The gist of the method: as §1

The results in this text go back to patent US12516056B2, “Compounds for inhibition of janus kinase 1” (MANKIND PHARMA LTD., priority 2019, dated 2026).

T4 sequence (P29597 whole entry): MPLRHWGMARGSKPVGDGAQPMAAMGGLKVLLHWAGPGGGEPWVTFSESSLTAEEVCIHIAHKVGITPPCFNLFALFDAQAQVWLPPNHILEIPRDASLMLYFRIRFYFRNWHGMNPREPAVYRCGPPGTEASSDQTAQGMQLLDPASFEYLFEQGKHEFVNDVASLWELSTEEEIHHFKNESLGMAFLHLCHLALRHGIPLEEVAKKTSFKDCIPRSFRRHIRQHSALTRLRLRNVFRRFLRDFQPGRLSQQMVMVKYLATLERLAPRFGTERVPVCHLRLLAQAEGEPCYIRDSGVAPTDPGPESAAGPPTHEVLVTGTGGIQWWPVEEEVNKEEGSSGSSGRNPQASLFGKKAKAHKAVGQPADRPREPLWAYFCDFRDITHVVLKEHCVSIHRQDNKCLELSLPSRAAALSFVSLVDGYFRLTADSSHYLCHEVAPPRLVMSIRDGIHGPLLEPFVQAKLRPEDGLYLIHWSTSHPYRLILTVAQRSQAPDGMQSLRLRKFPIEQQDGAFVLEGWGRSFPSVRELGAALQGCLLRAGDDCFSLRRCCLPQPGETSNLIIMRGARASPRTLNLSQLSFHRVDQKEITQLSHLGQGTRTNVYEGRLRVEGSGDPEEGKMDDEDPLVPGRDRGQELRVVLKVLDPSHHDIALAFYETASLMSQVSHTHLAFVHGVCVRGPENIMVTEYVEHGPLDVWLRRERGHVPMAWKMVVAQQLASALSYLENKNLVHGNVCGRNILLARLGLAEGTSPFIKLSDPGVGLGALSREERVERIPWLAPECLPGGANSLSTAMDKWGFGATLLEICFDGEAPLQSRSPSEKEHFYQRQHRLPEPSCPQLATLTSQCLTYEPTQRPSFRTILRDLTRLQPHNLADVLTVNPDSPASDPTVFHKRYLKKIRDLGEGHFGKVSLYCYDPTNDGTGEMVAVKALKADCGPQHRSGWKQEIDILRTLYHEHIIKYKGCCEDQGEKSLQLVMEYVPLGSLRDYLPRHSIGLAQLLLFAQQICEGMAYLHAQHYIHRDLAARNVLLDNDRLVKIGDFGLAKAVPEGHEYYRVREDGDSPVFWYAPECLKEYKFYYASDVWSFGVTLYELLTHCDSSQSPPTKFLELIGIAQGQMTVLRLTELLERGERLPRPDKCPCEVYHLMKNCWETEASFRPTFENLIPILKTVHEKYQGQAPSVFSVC
T1 sequence (O60674 whole entry): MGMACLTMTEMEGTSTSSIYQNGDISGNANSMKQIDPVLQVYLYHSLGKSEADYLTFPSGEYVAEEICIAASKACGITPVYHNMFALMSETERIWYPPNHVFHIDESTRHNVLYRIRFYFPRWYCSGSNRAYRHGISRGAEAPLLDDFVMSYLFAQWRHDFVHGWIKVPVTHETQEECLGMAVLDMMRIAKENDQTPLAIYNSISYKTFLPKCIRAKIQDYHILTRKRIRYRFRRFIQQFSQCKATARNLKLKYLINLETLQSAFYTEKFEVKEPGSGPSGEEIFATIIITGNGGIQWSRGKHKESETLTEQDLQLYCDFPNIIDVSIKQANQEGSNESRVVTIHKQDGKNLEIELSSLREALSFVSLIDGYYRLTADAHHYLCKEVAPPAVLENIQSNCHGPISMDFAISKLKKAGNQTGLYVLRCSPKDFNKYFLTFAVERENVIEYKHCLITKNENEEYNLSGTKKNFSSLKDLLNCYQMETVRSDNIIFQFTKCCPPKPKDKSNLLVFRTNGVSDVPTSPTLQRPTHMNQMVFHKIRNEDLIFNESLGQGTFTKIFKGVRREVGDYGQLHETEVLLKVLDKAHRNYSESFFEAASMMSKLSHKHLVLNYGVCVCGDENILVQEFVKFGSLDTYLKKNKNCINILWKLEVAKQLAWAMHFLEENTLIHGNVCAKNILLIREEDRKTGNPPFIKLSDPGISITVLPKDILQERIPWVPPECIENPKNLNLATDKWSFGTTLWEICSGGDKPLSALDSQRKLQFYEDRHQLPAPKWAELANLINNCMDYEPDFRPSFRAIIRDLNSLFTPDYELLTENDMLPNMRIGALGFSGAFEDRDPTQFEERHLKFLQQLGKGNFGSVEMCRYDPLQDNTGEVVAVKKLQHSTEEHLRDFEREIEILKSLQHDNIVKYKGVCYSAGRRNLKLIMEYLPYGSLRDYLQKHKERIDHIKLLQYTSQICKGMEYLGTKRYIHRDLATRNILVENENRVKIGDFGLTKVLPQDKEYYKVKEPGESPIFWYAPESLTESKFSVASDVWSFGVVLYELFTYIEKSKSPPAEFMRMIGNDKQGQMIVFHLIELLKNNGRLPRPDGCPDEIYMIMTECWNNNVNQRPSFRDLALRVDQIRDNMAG

As for `N#CC1CCN(C(=O)n2cc(-c3ccnc4[nH]cnc34)cn2)CC1` [Example 1067, 1-(4-(3H-imidazo[4,5-b]pyridin-7-yl)-1H-pyrazole-1-carbonyl)piperidine-4-carbonitrile], the IC50 was greater than 10 µM in assay [1]; greater than 0.5 µM on Recombinant JAK2; greater than 1 µM on Recombinant JAK1; greater than 10 µM in assay [2]; greater than 0.5 µM on Recombinant JAK3; greater than 10 µM at Recombinant TYK2.
As for `FC(F)(F)C(CNC1CC1)c1ccc(-n2cc(-c3ccnc4[nH]cnc34)cn2)nc1` (stereo not drawn) [Example 1212, N-(2-(6-(4-(3H-imidazo[4,5-b]pyridin-7-yl)-1H-pyrazol-1-yl)pyridin-3-yl)-3,3,3-trifluoropropyl)cyclopropanamine], the IC50 in assay [1] was greater than 1 µM; at Recombinant JAK2 it was less than 0.1 µM; at Recombinant JAK1, less than 0.1 µM; in assay [2] it was greater than 0.75 µM; at Recombinant JAK3 it was less than 0.1 µM; at Recombinant TYK2, greater than 0.5 µM.
Consider `O=C(NCC(F)(F)F)C(c1ccc(-n2cc(-c3ccnc4[nH]cnc34)cn2)nc1)C1CC1` (stereo not drawn) [Example 1167, 2-(6-(4-(3H-imidazo[4,5-b]pyridin-7-yl)-1H-pyrazol-1-yl)pyridin-3-yl)-2-cyclopropyl-N-(2,2,2-trifluoroethyl)acetamide], for which the IC50 in assay [1] was greater than 10 µM; at Recombinant JAK2, 0.3 µM; on Recombinant JAK1, 0.096 µM; in assay [2], 10 µM; at Recombinant JAK3, 0.173 µM; at Recombinant TYK2, greater than 10 µM.
`OC(c1ccc(-n2cc(-c3ccnc4[nH]cnc34)cn2)cn1)C(F)(F)F` (stereo not drawn) [Example 1173, 1-(5-(4-(3H-imidazo[4,5-b]pyridin-7-yl)-1H-pyrazol-1-yl)pyridin-2-yl)-2,2,2-trifluoroethanol]: the IC50 in assay [1] is greater than 10 µM; at Recombinant JAK2, less than 0.1 µM; on Recombinant JAK1 it was less than 0.1 µM; in assay [2] it was 10 µM; at Recombinant JAK3 it was less than 0.1 µM; at Recombinant TYK2 it was greater than 1 µM.
As to `N#CC1CCN(C(=O)n2cc(-c3ccnc4[nH]cnc34)cn2)C1` (stereo not drawn) [Example 1177, 1-(4-(3H-imidazo[4,5-b]pyridin-7-yl)-1H-pyrazole-1-carbonyl)pyrrolidine-3-carbonitrile], the IC50 in assay [1] is greater than 10 µM; at Recombinant JAK2, less than 0.5 µM; on Recombinant JAK1, greater than 1 µM; in assay [2], greater than 10 µM; on Recombinant JAK3, greater than 1 µM; at Recombinant TYK2 it was greater than 0.5 µM.
`O=C(C1CC1)N1CCC(C(O)(c2ccc(-n3cc(-c4ccnc5[nH]cnc45)cn3)nc2)C(F)(F)F)CC1` (stereo not drawn) [Example 1220, (4-(1-(6-(4-(3H-imidazo[4,5-b]pyridin-7-yl)-1H-pyrazol-1-yl)pyridin-3-yl)-2,2,2-trifluoro-1-hydroxyethyl)piperidin-1-yl)(cyclopropyl)methanone]: the IC50 in assay [1] was greater than 1 µM; at Recombinant JAK2 it was less than 0.1 µM; at Recombinant JAK1, less than 0.1 µM; in assay [2] it was greater than 1 µM; on Recombinant JAK3, less than 0.1 µM; on Recombinant TYK2, greater than 0.5 µM.
On to `N#CCc1coc(-n2cc(-c3ccnc4[nH]cnc34)cn2)n1` [Example 1075, 2-(2-(4-(3H-imidazo[4,5-b]pyridin-7-yl)-1H-pyrazol-1-yl)oxazol-4-yl)acetonitrile], for which the IC50 is greater than 10 µM in assay [1]; 0.19 µM at Recombinant JAK2; 0.046 µM at Recombinant JAK1; 3.1 µM in assay [2]; less than 0.5 µM on Recombinant JAK3; greater than 1 µM on Recombinant TYK2.
As to `N#CCC(NC(=O)n1cc(-c2ccnc3[nH]c(=O)[nH]c23)cn1)C(F)(F)F` (stereo not drawn) [Example 1050, N-(3-cyano-1,1,1-trifluoropropan-2-yl)-4-(2,3-dihydro-2-oxo-1H-imidazo[4,5-b]pyridin-7-yl)-1H-pyrazole-1-carboxamide], the IC50 in assay [1] is greater than 10 µM; on Recombinant JAK2, less than 0.5 µM; at Recombinant JAK1 it was less than 0.5 µM; in assay [2], less than 10 µM; at Recombinant JAK3 it was less than 0.5 µM; on Recombinant TYK2 it was less than 0.5 µM.
`N#CC(c1ccc(-n2cc(-c3ccnc4[nH]cnc34)cn2)nc1)N1CC(F)(F)C1` (stereo not drawn) [Example 1111, 2-(6-(4-(3H-imidazo[4,5-b]pyridin-7-yl)-1H-pyrazol-1-yl)pyridin-3-yl)-2-(3,3-difluoroazetidin-1-yl)acetonitrile]: the IC50 in assay [1] is greater than 10 µM; on Recombinant JAK2 it was greater than 0.5 µM; at Recombinant JAK1, less than 0.5 µM; in assay [2], greater than 10 µM; at Recombinant JAK3, less than 0.5 µM; at Recombinant TYK2, greater than 10 µM.
Consider `CC(C)[C@@H](C#N)NC(=O)n1cc(-c2ccnc3[nH]cnc23)cn1` [Example 1073, N-((S)-1-cyano-2-methylpropyl)-4-(3H-imidazo[4,5-b]pyridin-7-yl)-1H-pyrazole-1-carboxamide], for which the IC50 in assay [1] was greater than 10 µM; on Recombinant JAK2 it was greater than 0.5 µM; at Recombinant JAK1 it was greater than 1 µM; in assay [2] it was greater than 1 µM; at Recombinant JAK3 it was greater than 0.5 µM; on Recombinant TYK2, greater than 0.5 µM.
For the compound `CC(C)NC(=O)CCC(c1ccc(-n2cc(-c3ccnc4[nH]cnc34)cn2)nc1)C(F)(F)F` (stereo not drawn) [Example 1210, 4-(6-(4-(3H-imidazo[4,5-b]pyridin-7-yl)-1H-pyrazol-1-yl)pyridin-3-yl)-5,5,5-trifluoro-N-isopropylpentanamide], the IC50 in assay [1] is greater than 1 µM; at Recombinant JAK2, less than 0.1 µM; at Recombinant JAK1, less than 0.1 µM; in assay [2], greater than 0.75 µM; at Recombinant JAK3 it was less than 0.1 µM; on Recombinant TYK2, greater than 1 µM.
In the case of `CC(F)(c1ccc(-n2cc(-c3ccnc4[nH]cnc34)cn2)nc1)C(F)(F)F` (stereo not drawn) [Example 1128, 7-(1-(5-(1,1,1,2-tetrafluoropropan-2-yl)pyridin-2-yl)-1H-pyrazol-4-yl)-3H-imidazo[4,5-b]pyridine], the IC50 in assay [1] is greater than 10 µM; on Recombinant JAK2, greater than 0.5 µM; on Recombinant JAK1, less than 0.1 µM; in assay [2] it was greater than 1 µM; at Recombinant JAK3 it was greater than 0.5 µM; on Recombinant TYK2, greater than 1 µM.
As for `N#CC1CCN(C(=O)n2cc(-c3ccnc4[nH]c(=O)[nH]c34)cn2)C1` (stereo not drawn) [Example 1055, 1-(4-(2-oxo-2,3-dihydro-1H-imidazo[4,5-b]pyridin-7-yl)-1H-pyrazole-1-carbonyl)pyrrolidine-3-carbonitrile], the IC50 in assay [1] is greater than 10 µM; on Recombinant JAK2, less than 0.5 µM; at Recombinant JAK1 it was greater than 1 µM; in assay [2] it was greater than 10 µM; at Recombinant JAK3, greater than 1 µM; at Recombinant TYK2 it was greater than 0.5 µM.
